Measured values published in patent US20230405157A1, “MELANOCORTIN TYPE 2 RECEPTOR (MC2R) TARGETED THERAPEUTICS AND USES THEREOF” (Radionetics Oncology, Inc., priority 2022, published 2023).

target: T1, human MC2R (Homo sapiens, UniProt Q01718); assay: Inhibition of binding of ACTH in human MC2R-containing membranes (SPA radioligand competition); settings: competition with 0.2 nM [125I]-TYR23]-ACTH (1-39), membranes of CHO-K1 cells expressing hMC2 receptor; read-out: hMC2 membrane binding
T1 construct: host or cells: CellSensor CRE-bla CHO-K1 cells
T1 sequence (Q01718 whole entry): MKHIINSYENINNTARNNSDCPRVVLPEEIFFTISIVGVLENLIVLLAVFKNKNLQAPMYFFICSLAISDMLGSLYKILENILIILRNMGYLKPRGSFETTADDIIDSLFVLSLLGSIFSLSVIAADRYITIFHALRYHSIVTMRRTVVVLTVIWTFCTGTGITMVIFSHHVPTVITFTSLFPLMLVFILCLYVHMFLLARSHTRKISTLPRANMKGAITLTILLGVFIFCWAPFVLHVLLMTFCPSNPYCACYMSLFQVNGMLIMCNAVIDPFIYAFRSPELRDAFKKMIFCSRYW
T1 sequence (Q8TCY5 whole entry partner): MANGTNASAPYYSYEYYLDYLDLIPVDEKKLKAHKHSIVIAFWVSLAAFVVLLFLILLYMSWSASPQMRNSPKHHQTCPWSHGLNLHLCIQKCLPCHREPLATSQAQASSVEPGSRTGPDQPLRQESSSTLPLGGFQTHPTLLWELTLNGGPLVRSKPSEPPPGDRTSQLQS
Experimental: Crude membrane fractions are prepared from CellSensor CRE-blaCHO-K1 cells stably expressing functional hMC2 receptor (ThermoFisher #K1483). […] Cells were collected and washed in Dulbecco's phosphate buffered saline (Corning #21-031-CV). […] The membrane fraction is separated from cell debris and collected in membrane preparation buffer, flash frozen in liquid nitrogen and stored at −80° C. […] Briefly, membranes from cells expressing the human MC2R were incubated with SPA beads (PerkinElmer #RPNQ0001) in binding assay buffer [50 mM HEPES (Biopioneer #C0113), 5 mM MgCl2 (Sigma #M8266), 1 mM CaCl2) (Fisher Scientific #BP510), 0.2% BSA (Fisher Scientific #BP1600), and protease inhibitors (Pierce #A32963); pH 7.4]. […] All data manipulations to determine the Kivalues were performed using GraphPad v8 (GraphPad, San Diego CA)

Molecule | Ki [nM]
(R)-2,2′,2″-(10-(1-(3-(4-(4-ethoxy-2-(trifluoromethyl)benzoyl)-2-ethylpiperazin-1-yl)-6-(2-ethoxyphenyl)pyridin-2-yl)-19-oxo-6,9,12,15-tetraoxa-2,18-diazaicosan-20-yl)-1,4,7,10-tetraazacyclododecane-1,4,7-triyl)triacetic acid [Compound 11] | < 10
CCOc1ccccc1-c1ncc(C2(C(=O)N[C@@H]3CCN(CCOCCOCCOCCOCCNC(=O)CN4CCN(CC(=O)O)CCN(CC(=O)O)CCN(CC(=O)O)CC4)C3)CCN(c3ccc(C(F)(F)F)cc3C#N)CC2)cc1F [Compound 9, (R)-2,2′,2″-(10-(17-(3-(1-(2-cyano-4-(trifluoromethyl)phenyl)-4-(6-(2-ethoxy-phenyl)-5-fluoropyridin-3-yl)piperidine-4-carboxamido)pyrrolidin-1-yl)-2-oxo-6,9,12,15-tetra-oxa-3-azaheptadecyl)-1,4,7,10-tetraazacyclododecane-1,4,7-triyl)triacetic acid] | < 10
CCOc1ccc(C(=O)N2CCN(c3ccc(-c4cccnc4OCC)nc3CNCCCNC(=O)C[C@H](O)C[C@H](O)CCNC(=O)CN3CCN(CC(=O)O)CCN(CC(=O)O)CCN(CC(=O)O)CC3)[C@H](CC)C2)c(C(F)(F)F)n1 [Compound 6, 2,2′,2″-(10-(2-(((3R,5R)-7-((3-(((2′-ethoxy-5-((R)-4-(6-ethoxy-2-(trifluoromethyl)-nicotinoyl)-2-ethylpiperazin-1-yl)-[2,3′-bipyridin]-6-yl)methyl)amino)propyl)-amino)-3,5-dihydroxy-7-oxoheptyl)amino)-2-oxoethyl)-1,4,7,10-tetraazacyclododecane-1,4,7-triyl)triacetic acid] | < 10
CCOc1ccc(C(=O)N2CCN(c3ccc(-c4cccnc4OCC)nc3CNCCCCCCCCCCCCCCCNC(=O)CN3CCN(CC(=O)O)CCN(CC(=O)O)CCN(CC(=O)O)CC3)[C@H](CC)C2)c(C(F)(F)F)n1 [Compound 14, (R)-2,2′,2″-(10-(2-((15-(((2′-ethoxy-5-(4-(6-ethoxy-2-(trifluoromethyl)nicotinoyl)-2-ethylpiperazin-1-yl)-[2,3′-bipyridin]-6-yl)methyl)amino)pentadecyl)amino)-2-oxoethyl)-1,4,7,10-tetraazacyclododecane-1,4,7-triyl)triacetic acid] | < 10
CCOc1ccc(C(=O)N2CCN(c3ccc(-c4cccnc4OCC)cc3CNCCNCCCOCCOCCOCCOCCNC(=O)CN3CCN(CC(=O)[O-])CCN(CC(=O)[O-])CCN(CC(=O)[O-])CC3)[C@H](CC)C2)c(C(F)(F)F)n1.[Ga+3] [^69/71Ga complex of Compoud 15, gallium (R)-2,2′,2″-(10-(1-(2-(4-(6-ethoxy-2-(trifluoromethyl)nicotinoyl)-2-ethylpiperazin-1-yl)-5-(2-ethoxypyridin-3-yl)phenyl)-22-oxo-9,12,15,18-tetraoxa-2,5,21-triazatricosan-23-yl)-1,4,7,10-tetraazacyclododecane-1,4,7-triyl)triacetate] | < 10
CCOc1ccccc1-c1ccc(N2CCN(C(=O)c3ccc(Cl)cc3C(F)F)C[C@H]2CC)c(C(=O)NC2CCN(CCCOc3cc(NCCOCCNC(=O)CN4CCN(CC(=O)O)CCN(CC(=O)O)CCN(CC(=O)O)CC4)cc(C(=O)O)c3)C2)n1 (stereo in doubt) [Compound 13, 2,2′,2″-(10-(2-((2-(2-((3-carboxy-5-(3-((R)-3-(3-((R)-4-(4-chloro-2-(difluoromethyl)benzoyl)-2-ethylpiperazin-1-yl)-6-(2-ethoxyphenyl)picolinamido)pyrrolidin-1-yl)propoxy)phenyl)amino)ethoxy)ethyl)amino)-2-oxoethyl)-1,4,7,10-tetraazacyclododecane-1,4,7-triyl)triacetic acid] | < 10
2,2′,2″-(10-((R)-8-amino-1-(2′-ethoxy-5-((R)-4-(6-ethoxy-2-(trifluoromethyl)-nicotinoyl)-2-ethylpiperazin-1-yl)-[2,3′-bipyridin]-6-yl)-7,10,18-trioxo-14-oxa-2,6,11,17-tetra-azanonadecan-19-yl)-1,4,7,10-tetraazacyclododecane-1,4,7-triyl)triacetic acid [Compound 10] | < 10
CCOc1ccc(C(=O)N2CCN(c3ccc(-c4cccnc4OCC)cc3CNCCNCCCOCCOCCOCCOCCNC(=O)CN3CCN(CC(=O)O)CCN(CC(=O)O)CCN(CC(=O)O)CC3)[C@H](CC)C2)c(C(F)(F)F)n1 [Compound 15, (R)-2,2′,2″-(10-(1-(2-(4-(6-ethoxy-2-(trifluoromethyl)nicotinoyl)-2-ethylpiperazin-1-yl)-5-(2-ethoxypyridin-3-yl)phenyl)-22-oxo-9,12,15,18-tetraoxa-2,5,21-triazatricosan-23-yl)-1,4,7,10-tetraazacyclododecane-1,4,7-triyl)triacetic acid] | < 10

Results, then the molecule that gave them:

Ki [nM] | Molecule
< 10 | CCOc1ccc(C(=O)N2CCN(c3ccc(-c4cccnc4OCC)nc3CNCCCOCCOCCOCCOCCNC(=O)CCC(C(=O)O)N3CCN(CC(=O)O)CCN(CC(=O)O)CCN(CC(=O)O)CC3)[C@H](CC)C2)c(C(F)(F)F)n1 (stereo partly drawn) [Compound 18, 2,2′,2″-(10-(22-carboxy-1-(2′-ethoxy-5-((R)-4-(6-ethoxy-2-(trifluoromethyl)-nicotinoyl)-2-ethylpiperazin-1-yl)-(2,3′-bipyridin]-6-yl)-19-oxo-6,9,12,15-tetraoxa-2,18-diazadocosan-22-yl)-1,4,7,10-tetraazacyclododecane-1,4,7-triyl)triacetic acid]
< 10 | CCOc1ccc(C(=O)N2CCN(c3ccc(-c4ccccc4OCC)nc3CNCCNCCCOCCOCCOCCOCCNC(=O)CN3CCN(CC(=O)O)CCN(CC(=O)O)CCN(CC(=O)O)CC3)[C@H](CC)C2)c(C(F)(F)F)c1 [Compound 17, (R)-2,2′,2″-(10-(1-(3-(4-(4-ethoxy-2-(trifluoromethyl)benzoyl)-2-ethylpiperazin-1-yl)-6-(2-ethoxyphenyl)pyridin-2-yl)-22-oxo-9,12,15,18-tetraoxa-2,5,21-triazatricosan-23-yl)-1,4,7,10-tetraazacyclododecane-1,4,7-triyl)triacetic acid]
< 10 | CCOc1ccc(C(=O)N2CCN(c3ccc(-c4cccnc4OCC)nc3CNCCCC[C@@H](NC(=O)CN3CCN(CC(=O)O)CCN(CC(=O)O)CCN(CC(=O)O)CC3)C(=O)O)[C@H](CC)C2)c(C(F)(F)F)n1 [^115In complex of Compound 2]
< 10 | CCOc1ccc(C(=O)N2CCN(c3ccc(-c4cccnc4OCC)nc3CNCCCN(CCOCCOCCOCCNC(=O)CN3CCN(CC(=O)O)CCN(CC(=O)O)CCN(CC(=O)O)CC3)CCOCCOCCOCCNC(=O)CN3CCN(CC(=O)O)CCN(CC(=O)O)CCN(CC(=O)O)CC3)[C@H](CC)C2)c(C(F)(F)F)n1 [^115In complex of Compound 4]
< 10 | CCOc1ccc(C(=O)N2CCN(c3ccc(-c4cccnc4OCC)nc3CNCCCNC(=O)[C@@H](N)CC(=O)NCCOCCNC(=O)CN3CCN(CC(=O)O)CCN(CC(=O)O)CCN(CC(=O)O)CC3)[C@H](CC)C2)c(C(F)(F)F)n1 [^115In complex of Compound 5]
< 10 | CCOc1ccc(C(=O)N2CCN(c3ccc(-c4ccccc4OCC)nc3CNCCCOc3cc(NCCOCCNC(=O)CN4CCN(CC(=O)O)CCN(CC(=O)O)CCN(CC(=O)O)CC4)cc(C(=O)O)c3)[C@H](CC)C2)c(C(F)(F)F)c1 [^115In complex of Compound 3]
